Laboratory results reported in patent US12479927B2, “Compounds comprising cleavable linker and uses thereof” (priority 2017, dated 2025).
Like-named read-outs stand apart in the source and are kept apart here. Non-standard residues stand in square brackets, D forms with d. Residues, ends and D or L forms follow the SMILES beside them. Dolaproine = CO[C@@H]([C@@H]1CCCN1)[C@@H](C)C(=O)O; Dil = CC[C@H](C)[C@H](NC)[C@@H](CC(=O)O)OC; NMeV = CN[C@H](C(=O)O)C(C)C

Tests used:
[1] = molecular target: Escherichia coli β-galactosidase (Escherichia coli, UniProt P00722); assay: in vitro; conditions: recombinant enzyme
Method: Method 1. Escherichia coli β-galactosidase
MPS used as a standard material was dissolved in PBS buffer solution to make 500 uM solution. […] This was followed by the addition of enzyme solution (14 μL of 1 mg/mL). When comparing with human β-galactosidase, 21 μL of enzyme solution (1 mg/mL) was added to achieve the same molar concentration, and the compound of the present invention and MPS each having an amount of 140 μL and […] of the buffer solution (pH 7.4) were mixed. The resulting reaction mixture was incubated at 37° C. Escherichia coli β-galactosidase enzyme (Sigma G4155) was used in the reaction mixture. The enzyme reaction solution was aliquoted at 0 min before the reaction and at a predetermined time after the reaction, respectively, wherein each aliquot was 70 μL. Then, the remaining compound of the present invention or MPS, and a material liberated by the enzyme reaction were quantitatively analyzed by HPLC.

[2] = molecular target: T1, Human β-galactosidase (Homo sapiens, UniProt P16278); assay: Enzymatic cleavage assay, Method 2; format: biochemical; conditions: recombinant enzyme; for Q part release t1/2(min): 100 μM
T1 construct: purchased R&D 6464-GH-020
T1 sequence (P16278 29-677): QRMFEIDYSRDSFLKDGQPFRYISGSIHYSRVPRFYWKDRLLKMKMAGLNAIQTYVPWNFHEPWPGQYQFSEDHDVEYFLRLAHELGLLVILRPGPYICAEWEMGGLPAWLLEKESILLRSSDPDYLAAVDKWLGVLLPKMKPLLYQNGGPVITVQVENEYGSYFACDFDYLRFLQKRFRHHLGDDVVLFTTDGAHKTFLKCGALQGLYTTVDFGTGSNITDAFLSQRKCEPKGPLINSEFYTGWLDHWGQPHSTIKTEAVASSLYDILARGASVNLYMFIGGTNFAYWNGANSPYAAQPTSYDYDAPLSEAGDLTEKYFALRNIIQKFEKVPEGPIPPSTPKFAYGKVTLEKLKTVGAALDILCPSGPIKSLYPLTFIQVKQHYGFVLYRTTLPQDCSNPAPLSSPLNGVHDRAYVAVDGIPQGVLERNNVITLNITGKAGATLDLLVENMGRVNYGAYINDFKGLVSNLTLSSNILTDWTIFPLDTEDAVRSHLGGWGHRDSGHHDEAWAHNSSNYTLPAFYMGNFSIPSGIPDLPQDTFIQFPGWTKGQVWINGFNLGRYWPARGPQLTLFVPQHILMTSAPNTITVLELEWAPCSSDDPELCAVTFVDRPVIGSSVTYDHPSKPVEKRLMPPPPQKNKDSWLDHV
Method: Method 2) Human β-galactosidase
MPS used as a standard material was prepared as a solution to have a concentration of 500 μM in PBS buffer solution. […] Then, 140 μL of 0.1 mg/mL enzyme solution was added thereto, thereby preparing an enzyme reaction solution in a total amount of 700 μL. The reaction mixture was incubated at 37° C. Human β-galactosidase enzyme (R&D 6464-GH-020) was used in the reaction mixture.

[3] = tested on: SKBR-3 cancer cells; assay: In vitro analysis of antibody-drug conjugate, SKBR-3; format: cell-based; conditions: 96 hours
Method: (§1) KB cancer cells were collected and seeded in 24-well plates at a density of 30,000 cells per well in 2 mL of medium, and cultured for 24 hours. Then, the serial dilutions of compound C-1 obtained in Example 108 were treated from 30 nM to 0.0096 nM, the serial dilutions of compound C-2 obtained in Example 109 were treated from 1000 nM to 0.32 nM, serial dilutions of the compound C-3 obtained in Example 110 and the compound C-7 obtained in Example 114 were treated from 25 nM to 0.0016 nM, and serial dilutions of the drug MMAF-OMe were treated from 10 nM to 0.0097 nM. The serial dilutions of compounds C-5 and C-6 obtained in Example 112 and Example 113 were treated from 100 nM to 0.0001 nM, and the serial dilutions of drug seco-DUBA were treated from 100 nM to 0.001 nM. […] The formazans formed by reduction of the MTT dye by mitochondrial oxidoreductases in the living cells were dissolved in DMSO, and measured using the absorbance at 550 nm.
(§2) KB, SKBR-3, BT-474, NCI-N87 cancer cells were seeded in 96-well plates at a density of 2,000 to 8,000 cells per well in 100 μL of medium, and cultured for 24 hours. […] Experiments were performed in a similar manner to Test Example 3 to quantify living cells 96 hours later, and results are shown in Tables 4 and 5 below.

[4] = tested on: BT-474 cancer cells; assay: In vitro analysis of antibody-drug conjugate, BT-474; format: cell-based; conditions: 96 hours
Method: as §1, §2

[5] = tested on: NCI-N87 cancer cells; assay: In vitro analysis of antibody-drug conjugate, NCI-N87; format: cell-based; conditions: 96 hours
Method: as §1, §2

[6] = tested on: NCI-N87 cells; assay: In vivo efficacy, tumor xenograft; design: species or system mice; conditions: male BALB/c nu/nu, single i.v. injection day 0, 2 mg/kg
Method: In vivo efficacy of antibody-drug conjugates of the invention was measured by tumor xenograft studies in mice. Male BALB/c nu/nu were injected subcutaneously in the right flank with suspensions of 1×10^6 of NCI-N87 cells respectively in PBS. Mice were randomized into study groups when tumors reached approximately 100 mm^3. T-DM1 (2 mg/kg), D-1-AB, D-2-AB, D-8-AB, and D-18-AB conjugates (0.5 mg/kg or 2 mg/kg) were given i.v. (single injection on treatment day 0). All treatment groups consisted of 6 to 10 animals per group, and tumor size was monitored twice weekly using caliper measurement. The tumor mass was calculated as volume=(width×width×length)/2.

[7] = tested on: KB cancer cells; assay: cells; format: cell-based; conditions: MTT; 72 hours, 96 hours, or 144 hours of incubation; read-out: KB cell IC50
Method: KB cancer cells were collected and seeded in 24-well plates at a density of 30,000 cells per well in 2 mL of medium, and cultured for 24 hours. Then, the serial dilutions of compound C-1 obtained in Example 108 were treated from 30 nM to 0.0096 nM, the serial dilutions of compound C-2 obtained in Example 109 were treated from 1000 nM to 0.32 nM, serial dilutions of the compound C-3 obtained in Example 110 and the compound C-7 obtained in Example 114 were treated from 25 nM to 0.0016 nM, and serial dilutions of the drug MMAF-OMe were treated from 10 nM to 0.0097 nM. The serial dilutions of compounds C-5 and C-6 obtained in Example 112 and Example 113 were treated from 100 nM to 0.0001 nM, and the serial dilutions of drug seco-DUBA were treated from 100 nM to 0.001 nM. Serial dilutions of the compounds C-4 and C-9 obtained in Example 111 and Example 116 were treated from 1000 nM to 0.001 nM, and the serial dilutions of drug CBI dimer were treated by from 10 nM to 0.00001 nM. Serial dilutions of the compound C-8 obtained in Example 115 and the drug CBI-indole were treated from 100 nM to 0.0001 nM. After 72 hours, 96 hours, or 144 hours of incubation, 0.2 mL of 3-(4,5-dimethylthiazol-2-yl)-2,5-diphenyltetrazolium bromide (MTT) dye, dissolved in PBS buffer solution (5 mg/mL), was added to each well of the plates. The formazans formed by reduction of the MTT dye by mitochondrial oxidoreductases in the living cells were dissolved in DMSO, and measured using the absorbance at 550 nm.

[8] = tested on: KB cancer cells; assay: In vitro analysis of protein-drug conjugate, KB; format: cell-based; conditions: 96 hours, read-out: KB cell IC50
Method: as §1, §2

[9] = molecular target: T2, Escherichia coli β-glucuronidase (Escherichia coli, UniProt P05804); assay: Enzymatic cleavage assay, Method 3; format: biochemical; conditions: Escherichia coli β-glucuronidase (Sigma G7396) in PBS buffer, PBS pH 7.4, 37° C., HPLC, read-out: TG release t1/2(min)
T2 construct: purchased Sigma G7396
Method: Method 3) Escherichia coli β-glucuronidase
The compounds A-1 and A-5 of the present invention were dissolved in DMSO, and mixed with PBS buffer solution to prepare a solution having a concentration of 500 μM (5% DMSO). MPS used as a standard material was prepared as a solution to have a concentration of 500 μM in PBS buffer solution. […] Then, 14 μL of enzyme solution (1 mg/mL) was added thereto, thereby preparing an enzyme reaction solution in a total amount of 700 μL. The reaction mixture was incubated at 37° C. Escherichia coli β-glucuronidase enzyme (Sigma G7396) was used in the reaction mixture.

[10] = tested on: Escherichia coli β-galactosidase + β-glucuronidase; assay: Enzymatic cleavage assay, Method 4; format: biochemical; conditions: PBS pH 7.4, 37° C., HPLC, read-out: TG release t1/2(min)
Method: Method 4 Escherichia coli β-Galactosidase+β-Glucuronidase
The compound A-5 of the present invention was dissolved in DMSO, and mixed with PBS buffer solution to prepare a solution having a concentration of 500 μM (5% DMSO). MPS used as a standard material was prepared as a solution to have a concentration of 500 μM in PBS buffer solution. […] Then, 14 μL of 1 mg/mL of β-galactosidase (Sigma G4155) and 14 μL of 1 mg/mL of β-glucuronidase (Sigma G7396) were added thereto, thereby preparing an enzyme reaction mixture in a total amount of 700 μL. The reaction mixture was incubated at 37° C.

[11] = Plasma stability test, mouse; format: in vitro ADME; conditions: 37° C., up to 7 days, 300 μM
Method: (§3) The compound A-1 obtained in Example 58 and MPS used as a standard material were dissolved in DMSO to make a concentration of 60 mM. Then, each of human plasma (Biochemed 752R-SC-PMG), mouse plasma (Biochemed 029-APSC-MP), rat plasma (Biochemed 031-APSC-MP), and beagle dog plasma (Biochemed 013-APSC-MP) were mixed with the compound and MPS to make a final concentration of 300 μM (final 0.5% DMSO). The resulting plasma mixtures were incubated at 37° C. water bath. Aliquots were taken before the reaction and on 1 day, 2 days, 4 days, and 7 days after the reaction, wherein each aliquot was 300 μL. To complete the reaction, two-fold volumes of acetonitrile was added, followed by brief vortexing, and centrifugation for plasma protein precipitation. Each supernatant obtained after centrifugation was collected and analyzed by HPLC. The compound A-1 was detected and quantitated in the mouse, rat, beagle dog, and human plasma for up to 7 days (>95%).

[12] = Plasma stability test, rat; format: in vitro ADME; conditions: 37° C., up to 7 days, 300 μM
Method: as §3

[13] = Plasma stability test, dog; format: in vitro ADME; conditions: beagle dog plasma, 37° C., up to 7 days, 300 μM
Method: as §3

[14] = Plasma stability test, human; format: in vitro ADME; conditions: 37° C., up to 7 days, 300 μM
Method: as §3

[15] = Chemical stability in PBS; format: physicochemical; conditions: PBS (pH 7.4), room temperature, light blocked, 7 days incubation
Method: The compound A-1 obtained by Example 58 was dissolved in DMSO, and mixed with PBS (pH 7.4) buffer solution to prepare a solution having a concentration of 500 μM (5% DMSO). MPS used as a standard material was prepared as a solution to have a concentration of 500 μM in PBS buffer solution. 420 μL of the buffer solution, and 140 μL of the compound A-1 solution and 140 μL of MPS solution were mixed, thereby preparing a reaction mixture in a total amount of 700 μL. The reaction mixture was incubated at room temperature while blocking the light. The reaction mixture was aliquoted on 0 day before the reaction and on 1 day, 2 days, 4 days, and 7 days after the reaction, wherein each aliquot amount was 70 μL. Then, the remaining compound A-1, MPS, and liberated tyrosine were quantitated by HPLC analysis.

Escherichia coli β-galactosidase, sequence (P00722 2-1024): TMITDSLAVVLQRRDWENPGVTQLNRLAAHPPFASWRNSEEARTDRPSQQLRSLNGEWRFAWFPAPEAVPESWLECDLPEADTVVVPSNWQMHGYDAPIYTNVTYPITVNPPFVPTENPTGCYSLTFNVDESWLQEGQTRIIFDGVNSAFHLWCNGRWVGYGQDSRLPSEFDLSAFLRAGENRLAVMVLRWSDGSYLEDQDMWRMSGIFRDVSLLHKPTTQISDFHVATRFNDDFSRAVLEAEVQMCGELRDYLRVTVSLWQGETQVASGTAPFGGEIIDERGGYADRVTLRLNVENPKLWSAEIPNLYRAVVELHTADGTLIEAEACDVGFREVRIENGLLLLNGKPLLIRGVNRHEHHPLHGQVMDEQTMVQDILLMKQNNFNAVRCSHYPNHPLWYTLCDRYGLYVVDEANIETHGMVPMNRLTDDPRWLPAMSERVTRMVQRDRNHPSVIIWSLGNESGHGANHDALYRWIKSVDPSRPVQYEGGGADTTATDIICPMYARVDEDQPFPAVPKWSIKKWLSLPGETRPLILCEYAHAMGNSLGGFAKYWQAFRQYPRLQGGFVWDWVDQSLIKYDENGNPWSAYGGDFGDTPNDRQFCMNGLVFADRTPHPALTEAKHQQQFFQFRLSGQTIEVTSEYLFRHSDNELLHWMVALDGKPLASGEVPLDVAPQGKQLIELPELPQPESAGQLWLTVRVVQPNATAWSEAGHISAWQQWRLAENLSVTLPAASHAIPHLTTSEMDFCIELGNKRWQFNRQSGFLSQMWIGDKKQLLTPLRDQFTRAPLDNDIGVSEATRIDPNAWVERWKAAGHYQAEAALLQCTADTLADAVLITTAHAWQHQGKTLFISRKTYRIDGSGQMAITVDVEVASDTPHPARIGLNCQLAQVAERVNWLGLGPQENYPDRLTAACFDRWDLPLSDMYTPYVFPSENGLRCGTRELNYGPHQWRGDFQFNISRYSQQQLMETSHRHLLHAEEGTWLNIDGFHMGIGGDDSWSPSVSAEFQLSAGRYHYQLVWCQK
T2 sequence (P05804 whole entry): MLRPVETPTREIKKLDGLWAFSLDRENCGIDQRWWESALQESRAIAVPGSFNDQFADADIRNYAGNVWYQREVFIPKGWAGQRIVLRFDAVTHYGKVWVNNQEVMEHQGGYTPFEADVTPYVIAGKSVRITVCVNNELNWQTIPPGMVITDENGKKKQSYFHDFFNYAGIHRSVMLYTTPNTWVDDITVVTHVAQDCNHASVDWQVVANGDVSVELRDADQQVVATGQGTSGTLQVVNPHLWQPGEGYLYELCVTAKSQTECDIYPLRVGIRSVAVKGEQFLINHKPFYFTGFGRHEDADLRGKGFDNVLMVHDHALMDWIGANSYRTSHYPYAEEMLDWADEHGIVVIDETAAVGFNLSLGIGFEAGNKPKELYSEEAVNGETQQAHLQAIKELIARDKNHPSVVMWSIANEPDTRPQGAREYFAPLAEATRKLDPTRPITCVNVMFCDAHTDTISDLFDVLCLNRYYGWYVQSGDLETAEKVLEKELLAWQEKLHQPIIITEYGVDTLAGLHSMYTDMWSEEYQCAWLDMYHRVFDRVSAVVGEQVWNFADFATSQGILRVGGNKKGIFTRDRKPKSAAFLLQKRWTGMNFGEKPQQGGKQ

Compound: CCc1c2c(nc3ccc(OS(=O)(=O)Oc4cc(C(=O)NCCOCCOCCOCCN=[N+]=[N-])ccc4O[C@@H]4O[C@H](CO)[C@H](O)[C@H](O)[C@H]4O)cc13)-c1cc3c(c(=O)n1C2)COC(=O)[C@]3(O)CC [Compound B-2]
- half-life at 100 μM ([1]; pH 5): 5.75 min
- half-life at 100 μM ([1]; pH 7.4): 0.28 min
- Q part release t1/2(min) ([2]; pH 5): 39.41 min
- Q part release t1/2(min) ([2]; pH 7.4): 112.2 min
- half-life at 100 μM ([2]; pH 5): 5.33 min

Compound: CC(C)(C)OC(=O)NC(Cc1ccc(OS(=O)(=O)Oc2ccccc2O[C@@H]2O[C@H](C(=O)O)[C@@H](O)[C@H](O)[C@H]2O)cc1)C(=O)O (stereo partly shown) [Compound A-3]
- half-life at 100 μM ([2]; Method 2, pH 7.4, 37° C., HPLC, read-out: TG release t1/2(min)): 10.7 min

Compound: T-DM1
- IC50 [3]: 0.02 nM
- IC50 [4]: 0.18 nM
- IC50 [5]: 0.02 nM
- activity compared with the conjugates of the invention [6]: less active

Compound: CC[C@H](C)[C@@H]([C@@H](CC(=O)N1CCC[C@H]1[C@H](OC)[C@@H](C)C(=O)N[C@@H](Cc1ccccc1)C(=O)OC)OC)N(C)C(=O)[C@@H](NC(=O)[C@@H](NC)C(C)C)C(C)C [MMAF-OMe] (H-[NMeV]V[Dil][Dolaproine]F-OMe)
- IC50 [7]: 0.35 ± 0.07 nM
- IC50 ([8]; values marked * (asterisk not explained)): 0.16 nM
- IC50 ([8]; values without asterisk): 0.44 nM

Compound: CC(C)(C)OC(=O)N[C@H](Cc1ccc(OS(=O)(=O)Oc2ccccc2O[C@@H]2O[C@H](COC3O[C@H](C(=O)O)[C@@H](O)[C@H](O)[C@H]3O)[C@H](O)[C@H](O)[C@H]2O)cc1)C(=O)O (stereo partly shown) [Compound A-5]
- half-life at 100 μM ([1]; pH 7.4): < 5 min
- half-life at 100 μM [9]: < 5 min
- half-life at 100 μM [10]: < 5 min

Compound: CC(C)(C)OC(=O)NC(Cc1ccc(OS(=O)(=O)Oc2ccccc2O[C@@H]2O[C@H](CO)[C@H](O)[C@H](O)[C@H]2O)cc1)C(=O)O (stereo partly shown) [Compound A-1]
- half-life at 100 μM [9]: 0.43 ± 0.11 min
- compound detected and quantitated in plasma [11]: > 95%
- compound detected and quantitated in plasma [12]: > 95%
- compound detected and quantitated in plasma [13]: > 95%
- compound detected and quantitated in plasma [14]: > 95%
- compound present (remaining) [15]: > 95%
